Where no end group is shown, it is not given here.

These results are taken from patent publication US20140004201A1, “Treatment of Vascular Diseases Using Encapsulated Cells Encoding and Secreting GLP-1, or a Fragment or Variant Thereof” (Biocompatibles UK Ltd., priority 2010, published 2014).

One data set deals with Rin-5F cells. The experiment in a line: Anti-apoptotic efficacy, cycloheximid induced apoptosis. It counts as cell-based, rat. The note with it: 24 hours. On the procedure:
40.000 Rin-5F cells were seeded per 96 well and cultivated for 2 days in RPMI supplemented with 1% L-Glutamin and 10% fetal calf serum. […] After 24 hours cell viability is quantified using AlamarBlue.

Data set [1] in a line: In vitro human plasma stability of GLP-1 CM peptides. It counts as in vitro ADME. Conditions: 20 ng/ml, 37° C., 3 hours. On the procedure:
Synthetic GLP-1 peptides (SEQ ID NO: 1syn, SEQ ID NO: 6syn, SEQ ID NO: 7rec, SEQ ID NO: 8syn) were incubated at concentrations of 20 ng/ml with human plasma at 37° C. and 5% CO2, for 3 hours. Dipeptidylpeptidase activity of the plasma was inhibited by a DPP-IV inhibitor (#DPP4, Biotrend).

Consider GLP-1(7-37)-IP2-GLP-1(7-37) [CM1], for which, in the data set on Rin-5F cells (1 nM CM1, cycloheximid, serum free, AlamarBlue), the anti-apoptotic effect result is listed as “significant anti-apoptotic effect”. Moreover, the cell viability result with Rin-5F cells (CHX 10 μg/ml and 100 μg/ml, different concentrations of CM1) is “significant (p<0.01) increase of cell viability”.

For “HAEGTFTSDVSSYLEGQAAKEFIAWLVKGRGRRDFPEEVAIAEELG [SEQ ID NO:8, GLP-1(7-37)-IP2]”, the “stability in human plasma in vitro (active GLP)” value in data set [1] was “significantly stabilized”.

B1: GLP-1(7-37)-IP2-RR-GLP2 (protein)
chain: HAEGTFTSDVSSYLEGQAAKEFIAWLVKGRGRRDFPEEVAIAEELGRRHADGSFSDEMSTILDNLATRDFINWLIQTKITDKK
modifications: Description of sequence SEQ ID No 7 (ID7rec, CM2) corresponds to GLP-1(7-37)-IP2-RR-GLP2, 83 aa, 9.4 kD
B1: the “stability in human plasma in vitro (active GLP)” value in data set [1] is “significantly stabilized”.
